Assay results as given in a melting point compilation (Tetko et al.; mined from patent text by program, amines drawn as free bases though some values may be those of a salt).

Row | SMILES | melting point [°C]
1 | CN1C[C@H](CN2CCN(C(c3ccccc3)c3ccccc3)CC2)C=C2c3cccc4c3c(cn4C)C[C@H]21 | 172 to 175
2 | O=C(NCC(=O)N(c1ccccc1)c1ccccc1)Nc1cccc(Cl)c1Cl | 210
3 | CCCCCCCCCCCCCCCCCC(=O)c1ccc(O)c(C(=O)O)c1 | 128 to 132
4 | O=C(NCC1CCCCCC1)NCC1CCCCCC1 | 106 to 108
5 | C=CCOc1ccc(C(=O)c2ccc(OCC=C)cc2O)c(O)c1 | 95
6 | CNC(=O)c1ccc(C=CC(=O)OC)cc1 | 210
7 | COc1ccc2[nH]c(S(=O)(=O)c3ccc(=O)[nH]n3)cc2c1 | > 250
8 | O=C(O)[C@@H](Cc1ccccc1)Oc1c(Br)cc(-c2c3ccccc3c(C(F)(F)F)c3sc4ccccc4c23)cc1Br | 109 to 143
9 | CC(=O)COc1ccc(Cl)cc1Cc1ccccc1 | 65 to 66
10 | Nc1cc(F)c(F)cc1S(N)(=O)=O | 137 to 142
11 | O=C(O)CCC/C=C\CN1C(=O)c2ccccc2C1=O | 86 to 88
12 | O=C(CCc1cnoc1-c1ccc(Cl)cc1)Nc1cccnc1 | 197 to 198
13 | O=C(Nc1ccc(Cl)cc1F)c1cc(-c2ccc(F)cc2F)ccc1O | 245 to 246
14 | CC(=O)Nc1c(C(=O)C(C)(C)C)[nH]c2cc(Cl)ccc12 | 190 to 193
15 | Cc1cc(Oc2c(Cl)cc(C(F)(F)F)cc2Cl)nn1C(=O)NOC(C)(C)C | 92 to 94
16 | Cc1oc(-c2ccccc2)nc1COc1ccc(N)cn1 | 106 to 107
17 | COc1cc(C2C(=O)N(C)Cc3c2ccc(OC)c3OC(C)C)cc(OC)c1OC (configuration not stated) | 128 to 129
18 | CCC(=O)c1ccc2c(c1)C(C(Cl)(Cl)Cl)OC(C(Cl)(Cl)Cl)O2 (configuration not stated) | 96 to 97
19 | CCC(=O)N[C@@H](C)C(=O)N1CCC[C@H]1C(=O)NC1CCCC1 | 172 to 173
20 | CCOC(Nc1ccccc1)(OCC)c1ccnc(C(=O)c2ccc(Cl)c(Cl)c2)c1 | 113 to 114
21 | NC(=S)Nc1ccccc1-c1ccccc1F | 175 to 177
22 | O=C(Nc1cnc(-c2ccccc2)nc1C(=O)O)OCc1cc2cc(-c3ccccc3)ccc2o1 | 184 to 185

Row | SMILES | melting point [°C]
23 | O=[N+]([O-])c1ccc(CF)cc1[N+](=O)[O-] | 37.5 to 38.5
24 | COc1cccc(CC(=O)O)c1OCCCc1cc(OC(C)C)nn1Cc1c(F)cccc1Cl | 97 to 98
25 | CC1=NN(C)C(=O)C1(Cl)C(Cl)c1ccc(Cl)cc1Cl (configuration not stated) | 113 to 115
26 | N#CC(C#N)=C(Cl)c1ccc(C(Cl)=C(C#N)C#N)cc1 | 177 to 179
27 | CC1(C)C(=NO)C(=NO)C(C)(C)N1C(=O)c1ccccc1 | 235 to 240
28 | CCn1nc(-c2c(-c3ccc(F)cc3)nn3ccc(OC)cc23)ccc1=O | 179 to 180
29 | O=C(O)c1cc(=O)c2c(OCC(O)COc3ccc(Br)cc3)cccc2o1 (configuration not stated) | 192 to 194
30 | CNC1=NS(=O)N=C1CCS (configuration not stated) | 191 to 193
31 | CON=C1C=CC=CC1CC(=O)OC (configuration not stated) | 96 to 97
32 | CCNC(=O)[C@H](C)NC(=O)[C@H](C)NC(=O)CC | 289 to 291
33 | CCCCCCCCCCCCCCCCCCOC(=O)C(NC(C)=O)C(=O)OC (configuration not stated) | 75 to 77
34 | COc1cc(OCc2ccccn2)ccc1/C=C/C(=O)CC(=O)/C=C/c1c[nH]c2ccc(F)cc12 | 183 to 186
35 | CCOC(=O)C1(CNC(=O)C=CC(Cc2ccc3ccccc3c2)N(C)C(=O)c2cc(C(F)(F)F)cc(C(F)(F)F)c2)CCCC1 (configuration not stated) | 136 to 138
36 | Nc1ccc2c(=O)[nH]c(=O)n(-c3ccccc3)c2n1 | > 300
37 | CCCCCCCCCCCCCCCCOCC(CNS(=O)(=O)CCCCl)COC (configuration not stated) | 44 to 46.5
38 | Nc1nc2nc(SCc3ccccc3)ncc2cc1Oc1ccc(F)cc1 | 186 to 192
39 | CCCCCCCCCCOCC(COCCCCCCCCCC)(CC(=O)O)CC(=O)O | 68 to 71
40 | COc1ccc(-c2oc3c(C(=O)O)cccc3c(=O)c2C)cc1 | 266 to 267
41 | c1ccc2c(c1)NCc1cscc1N2 | 167 to 169
42 | CCOC(=O)C(CCCCCCl)=NO | 36 to 38
43 | O=C(O)COc1ccc(Cn2nnc(-c3cccc(C#CCc4ccc(F)cc4)c3)n2)cc1 | 158 to 160
44 | COC(=O)C(O)C(NC(=O)OCc1ccccc1)C(=O)OC (configuration not stated) | 129

Row | SMILES | melting point [°C]
45 | O=C(NNC(=O)C(O)c1cccc(O)c1)c1c(O)cc(O)cc1Cl (configuration not stated) | 230 to 231
46 | O=C(O)C=Cc1cccc2cc[nH]c12 | 179 to 181
47 | Cc1cc(SC(C)CC(Sc2cc(C)c(O)c(C(C)(C)C)c2)Sc2cc(C)c(O)c(C(C)(C)C)c2)cc(C(C)(C)C)c1O (configuration not stated) | 65 to 69
48 | NCCc1ccc(-n2nc(C(F)(F)F)cc2C(F)(F)F)cc1 | 54
49 | Cc1ccc(-c2csc(-c3ccc4c(c3)C(C)(C)CCC4(C)C)c2)cc1 | 135 to 136
50 | Cc1ccc2cccc(OCc3cc(N(C)C(=O)CN)ccc3Cl)c2n1 | 82 to 87
51 | CCCCCCC(CCC)OC1(C(C)=O)C=CC=CC1 (configuration not stated) | 38 to 39
52 | CC1(OC(=O)C=CC2C(C(=O)OC(C#N)c3cccc(Oc4ccccc4)c3)C2(C)C)CCC1 (configuration not stated) | 78
53 | C=CCC1(C(=O)NCCCC)c2ccccc2-c2ccccc21 | 62.5 to 64
54 | O=C(NCCCc1c[nH]c2ccc(OCc3ccc4ccccc4n3)cc12)OCc1ccccc1 | 109 to 111
55 | COC(=O)/C=C/c1c(-c2ccc(F)cc2)cccc1C(C)C | 87 to 89
56 | CC(C)CCNC(=O)c1ccccc1-c1ccccc1CNS(=O)(=O)c1ccc(F)cc1 | 149
57 | CSc1cccc(-n2cnc(-c3ccc(F)cc3)c2-c2ccncc2)c1 | 155 to 156
58 | OCCOCC(O)c1cccc2ccccc12 (configuration not stated) | 91 to 92
59 | O=C(O)c1cnc2cnc3ccccc3n2c1=O | 216 to 218
60 | Cc1ccc2nc3[nH]c(=O)[nH]c3cc2c1Cl | > 360
61 | CC(=NO)c1ccc2c(c1)CCc1c(O)cc(O)cc1S2 | 215 to 218
62 | O=C(Nc1nccs1)C(CC1CCCC1)c1ccc(-c2ccccc2)cc1 (configuration not stated) | 57 to 58
63 | COC(=O)CN(C)c1cccc(Br)n1 | 47 to 48
64 | COc1c(C)sc2nc(SCc3ccccc3)nn12 | 101 to 103
65 | NCC(=O)NC(Cc1ccncc1)c1ccccc1 (configuration not stated) | 145 to 147

The remaining lines, values ahead:

Row | melting point [°C] | SMILES
66 | 78 to 80 | COC(=O)C(=Cc1cccc([N+](=O)[O-])c1)C(=O)OC
67 | 100 to 102 | CC1(C)OC(C=Cc2ccc(Cl)c(Cl)c2)=CC1=O
68 | 276 to 278 | CC(C)(C)c1cc(NS(=O)(=O)c2ccc(N3CCNC3=O)cc2)cc(C(C)(C)C)c1
69 | 105 to 107 | N#CCS(=O)(=O)C=C1N(CCCN2CCCCC2)CCN1CCCN1CCCCC1
70 | 209 | O=c1c(Cl)c(-c2ccc3c(ccn3[C@H]3CC[C@H](O)CC3)c2)ccn1CC1CC1
71 | 46 to 49 | CC(C)C[C@H](NC(=O)N1CCCCCC1)C(=O)N[C@](C)(Cc1ccc(OCc2ccccc2)cc1)C(=O)OC(C)(C)C
72 | 105 to 110 | COc1nc(C(=O)O)c(C(=O)NC(C)(C)C)s1
73 | 135 to 136 | CCCCn1c(=O)c2c(ncn2S(=O)(=O)c2cccc3ccccc23)n(CCCC)c1=O
74 | 114 to 116 | Cc1nn(C)c2c1N(C(=O)CN1CCCC1)c1ccccc1NC2=O
75 | 176 to 177 | COC(=O)Nc1cccc(C)c1COc1cccn2c(C)c(C)nc12
76 | 158 to 160 | CNc1nc2ncnn2c(NC2CCCC2)c1-c1ccccc1
77 | 90 to 92 | CN(C)c1cc(CO)cc(N(C)C)c1N1CCCCC1
78 | 125 to 127 | CC(C)(C)OC(=O)N1CCN(c2cc(Cl)ccc2N)CC1
79 | 82 to 84 | CN1CC(CCN2CCN(c3ccc(F)cc3)CC2)OC1=O (configuration not stated)
80 | 112 to 115 | Cn1c(CN2CCOCC2)nc([N+](=O)[O-])c1C#N
81 | 127 to 129 | Cc1c(-c2cccnc2)n(Cc2ccc(C#N)cc2)c2ccccc12
82 | 71 to 72 | CC(C)Nc1cccnc1N1CCN(C(=O)c2ccc(C(=O)N(CCO)c3ccccc3)cc2)CC1
83 | 266 to 270 | Cc1cc(C2=NNC(=O)CC2)c2c(c1)N(C)C(=O)CO2
84 | 255 | CCN1C(=O)CCC(C)(C)c2cc(Nc3ncc(Cl)c(Nc4ccc(N5CCOCC5)cc4OC)n3)ccc21

Row | melting point [°C] | SMILES
85 | 158 to 160 | CC(=O)NCC1CN(c2ccc(N3CCC(n4ccnn4)C(F)C3)c(F)c2)C(=O)O1 (configuration not stated)
86 | 152 to 155 | CN1CCCC1Cc1cn(Cc2ccccc2)c2ccc(C(C#N)S(=O)(=O)N(C)C(c3ccccc3)c3ccccc3)cc12 (configuration not stated)
87 | > 205 | Cc1c(=O)[nH]c(=O)n2cc(C(=O)O)sc12
88 | 163 to 164 | CC(=O)Nc1cc2c(c(C)c1C)OC(C)(C)C2
89 | 174 to 176 | COCCOc1cc2c(cc1C#Cc1ccccc1)NC(=O)CC(c1cccc(C#N)c1)=N2
90 | 208 to 209 | Cn1cc(OS(C)(=O)=O)c(=O)c2ccccc21
91 | 168 | CCOc1cccc(C)c1S(=O)(=O)NC(=O)c1noc(C)n1
92 | 152 | COC(=O)NC(C(=O)O)c1ccc([N+](=O)[O-])cc1 (configuration not stated)
93 | 134 | N#Cc1cccc(C(F)(F)F)c1O
94 | 155 to 157 | CN(Cc1ccccc1)CC1CN(c2c(F)cc3c(=O)c(C(=O)O)cn(C4CC4)c3c2F)CCO1 (configuration not stated)
95 | 140 to 141 | CCOC(=O)C(=O)Nc1cc(C#N)c(C#N)cc1[N+](=O)[O-]
96 | 66 to 67 | COc1ccc(C2(C)C(=O)c3c(N4CCN(C)CC4)cc(Cl)cc3N(Cc3ccccc3)C2=O)cc1 (configuration not stated)
97 | 161 to 163 | CCN1COc2cc3c(=O)n(CCc4cccc(F)c4)nnc3cc2C1=O
98 | 58 to 71 | CCCCCCCCNC(=O)N1CCC(S(=O)(=O)c2ccc(CCNC[C@H](O)COc3ccc(O)c(C)c3)cc2)CC1
99 | 233 to 234 | CCS(=O)(=O)N1CCN(c2ccc(NC(=O)c3cc(=O)c4cc(F)cc(N5CCN(C)CC5)c4o3)cc2)CC1
100 | 58 to 59 | CC#CN(C)c1nc2ccccc2s1
101 | 147 to 148 | N#Cc1cc(N)ccc1N1CCOCC1
102 | 108 to 109 | COc1ccc(-c2nc3ncccc3o2)cc1OC1CCCC1
